Measurements reported in US12377102B2, “Compounds for the prevention and treatment of medical disorders and uses thereof” (GALECTIN SCIENCES, LLC, priority 2017, dated 2025).

Experiments:
[1] = target: T1, recombinant human Gal-3 (Homo sapiens, UniProt P17931); assay: 1H-15N HSQC NMR shifts of 15N-labeled Gal-3 on compound addition; assay type: binding; conditions: full Gal-3
T1 construct: shifts of whole molecule of Gal-3 (Gal-3 FL); made in house; host or cells: E. coli BL21 (DE3)
Procedure: Heteronuclear ^15N NMR spectroscopy was used to evaluate the interaction of compounds described herein with galectin molecules, including but not limited to Gal-3, to assess the interaction residues on the Gal-3 molecule.
NMR experiments were carried out at 30° C. on Bruker 600 MHz, 700 MHz or 850 MHz spectrometers equipped with H/C/N triple-resonance probes and x/y/z triple-axis pulse field gradient units. […] Raw data were converted and processed by using NMRPipe and were analyzed by using NMRview.

[2] = target: Gal-3 CRD (Homo sapiens, UniProt P17931); assay: Fluorescence Polarization with fluorescein-labeled carbohydrate probe; assay type: binding; conditions: FITC linked lactose derivative probe
[3] = target: galectin 1 interaction with integrin αMβ2 (Homo sapiens, UniProt P09382); assay: ELISA galectin 1 interaction with integrin αMβ2; assay type: binding; conditions: FIG. 8E
[4] = target: Gal-3 binding to IGF-R1 (gene IGF1R) (Homo sapiens, UniProt P17931); assay: ELISA Gal-3 binding to Insulin Like Growth Factor 1 Receptor; conditions: FIGS. 12G-1 to 12G-3
Procedure: Using the ELISA composition assay described herein, in which the compounds were incubated with Gal-3 and the binding of Gal-3 with IGF-Receptor was tested.

[5] = target: galectin 9 interaction with integrin αMβ2 (Homo sapiens, UniProt O00182); assay: ELISA galectin 9 interaction with integrin αMβ2; assay type: binding; conditions: FIG. 8E
Text: (§1) Activated ELISA plate is coated with αMβ2 integrin.

[6] = target: Gal-3 binding to Integrin αMβ2 (Homo sapiens, UniProt P17931); assay: ELISA Gal-3 binding to integrin αMβ2
Text: Illustrations of functional assays with Gal-3 binding pairing specific antibody with a Glycoprotein ligand, e.g. Gal-3 Binding-Protein (Gal-3 BP), Integrins, etc. (FIGS. 7A and 7B).
as §1

Gal-3 binding to Integrin αMβ2, sequence (P17931 2-250 limits assumed): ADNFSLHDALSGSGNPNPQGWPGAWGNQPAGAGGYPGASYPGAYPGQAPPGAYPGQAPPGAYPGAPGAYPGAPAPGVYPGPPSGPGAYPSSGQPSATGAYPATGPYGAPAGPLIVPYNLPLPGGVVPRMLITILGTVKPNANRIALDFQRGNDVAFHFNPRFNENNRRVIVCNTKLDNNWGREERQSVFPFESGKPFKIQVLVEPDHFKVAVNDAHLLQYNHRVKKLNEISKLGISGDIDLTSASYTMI
T1 sequence (P17931 whole entry): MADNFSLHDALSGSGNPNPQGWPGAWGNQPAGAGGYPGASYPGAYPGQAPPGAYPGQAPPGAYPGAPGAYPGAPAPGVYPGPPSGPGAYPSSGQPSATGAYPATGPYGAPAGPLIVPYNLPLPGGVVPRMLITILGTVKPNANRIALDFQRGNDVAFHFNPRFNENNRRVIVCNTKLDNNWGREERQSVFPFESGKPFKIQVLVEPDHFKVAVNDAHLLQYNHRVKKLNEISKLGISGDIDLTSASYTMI
Gal-3 binding to IGF-R1 (gene IGF1R), sequence (P17931 2-250 limits assumed): as the sequence (P17931 2-250 limits assumed) above
Gal-3 CRD, sequence (P17931 whole entry): as the sequence (P17931 whole entry) above
galectin 9 interaction with integrin αMβ2, sequence (O00182 whole entry): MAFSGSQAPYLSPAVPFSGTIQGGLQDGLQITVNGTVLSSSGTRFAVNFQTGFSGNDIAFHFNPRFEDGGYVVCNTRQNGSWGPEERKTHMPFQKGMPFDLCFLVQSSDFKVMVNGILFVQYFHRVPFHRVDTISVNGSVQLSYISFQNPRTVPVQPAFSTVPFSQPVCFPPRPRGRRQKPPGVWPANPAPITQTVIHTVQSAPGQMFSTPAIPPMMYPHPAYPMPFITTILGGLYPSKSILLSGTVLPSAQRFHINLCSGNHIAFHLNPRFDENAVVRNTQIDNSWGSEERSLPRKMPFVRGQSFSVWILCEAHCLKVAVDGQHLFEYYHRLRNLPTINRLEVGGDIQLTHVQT
galectin 1 interaction with integrin αMβ2, sequence (P09382 2-135 limits assumed): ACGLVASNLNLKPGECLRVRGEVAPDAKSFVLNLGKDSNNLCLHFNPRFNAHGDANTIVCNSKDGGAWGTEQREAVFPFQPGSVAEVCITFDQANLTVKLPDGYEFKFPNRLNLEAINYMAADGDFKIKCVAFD

Row | Fluorescent Polarization inhibition signal [2] | inhibition of galectin 1 interaction with integrin αMβ2 [3] | effect on Gal-3 binding to IGF-R1 [4] | inhibition of galectin 9 interaction with integrin αMβ2 [5] | specificity for Gal-3 vs other galectins (1, 8, 9) ([6]; ELISA with integrin αMβ2, FIGS. 8D and 8E) | inhibition of Integrin αMβ2 interaction with Gal-3 ([6]; ELISA, FIGS. 8B, 8C, 12C) | SMILES | interaction with amino-acids located in the CRD site (HSQC NMR) [1]
1 |  |  |  |  |  |  | Cc1ccc(COc2ccc(C=C3CCn4c3nc(=O)c3ccccc34)cc2)cc1 [AGS-0144, 3-({4-[(4-methylphenyl)methoxy]phenyl}methylidene)-1H,2H,3H,5H-pyrrolo[1,2-a]quinazolin-5-one] | have not directly interact with these amino-acids
2 | strong signal | inhibited | cause inhibition | inhibited | non-specific interaction | inhibition | OC[C@H]1O[C@@H](S[C@@H]2O[C@H](CO)[C@H](O)[C@H](n3cc(-c4cccc(F)c4)nn3)[C@H]2O)[C@H](O)[C@@H](n2cc(-c3cccc(F)c3)nn2)[C@H]1O [TD-139] | create disturbances of amino-acid located in the CRD site
